# Data from patent publication US20140350029A1 (DAINIPPON SUMITOMO PHARMA CO., LTD., priority 2011, published 2014).
# “Also recorded” adds a separate entry of the source.
# Columns and labels:
# [1] = molecular target: T1, Dopamine D1 receptor (Rattus norvegicus, UniProt P18901); experiment: In vitro receptor binding, dopamine D1 (rat); conditions: read-out: Binding Affinities (Ki; nM) Dopamine D1
# T1 construct: Membranes from male Wistar rat brain tissues; from tissue; host or cells: male Wistar rat brain
# Procedure: (§1) In vitro binding studies were carried out according to the procedures well-established in the art. Membranes from male Wistar rat brain tissues or cells expressing cloned human receptors were prepared under assay conditions summarized in Ishibashi, T. et al. (Journal of Pharmacology and Experimental Therapeutics (2010)). Functional assays were carried out to analyze the binding affinity and effect on receptor function for dopamine D1-D4 receptor subtypes, serotonin 5-HT1A, 5-HT2A, 5-HT2C, 5-HT6, 5-HT7, norepinephrine α1, α2A, α2C, histamine H1 receptors, and muscarinic M1 receptors.
# [2] = molecular target: T2, Dopamine D3 receptor (Homo sapiens, UniProt P35462); experiment: In vitro receptor binding, dopamine D3; conditions: cloned cells expressing human receptors; read-out: Binding Affinities (Ki; nM) Dopamine D3
# T2 construct: expressed in transfected cells
# [3] = molecular target: T3, noradrenaline α2C receptor (Homo sapiens, UniProt P18825); conditions: background statement; cited from earlier work
# T3 sequence (P18825 1-462): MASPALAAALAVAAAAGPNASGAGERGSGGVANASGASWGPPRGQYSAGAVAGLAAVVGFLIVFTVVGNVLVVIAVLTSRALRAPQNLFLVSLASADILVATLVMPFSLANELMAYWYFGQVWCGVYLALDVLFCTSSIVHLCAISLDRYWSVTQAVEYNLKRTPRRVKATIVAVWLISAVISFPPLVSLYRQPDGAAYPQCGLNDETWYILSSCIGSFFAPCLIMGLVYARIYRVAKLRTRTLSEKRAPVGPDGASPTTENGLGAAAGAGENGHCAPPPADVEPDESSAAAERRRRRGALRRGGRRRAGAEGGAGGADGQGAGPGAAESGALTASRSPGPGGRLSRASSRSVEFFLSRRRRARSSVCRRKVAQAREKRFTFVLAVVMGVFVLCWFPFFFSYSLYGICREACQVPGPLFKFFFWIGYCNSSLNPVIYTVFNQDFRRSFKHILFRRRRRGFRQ
# [4] = molecular target: dopamine D2 receptor (Homo sapiens, UniProt P14416); conditions: background statement; cited from earlier work
# [5] = molecular target: T4, Serotonin 5-HT2c receptor (Sus scrofa, UniProt K7GSR7); format: binding, porcine
# T4 sequence (K7GSR7 1-457): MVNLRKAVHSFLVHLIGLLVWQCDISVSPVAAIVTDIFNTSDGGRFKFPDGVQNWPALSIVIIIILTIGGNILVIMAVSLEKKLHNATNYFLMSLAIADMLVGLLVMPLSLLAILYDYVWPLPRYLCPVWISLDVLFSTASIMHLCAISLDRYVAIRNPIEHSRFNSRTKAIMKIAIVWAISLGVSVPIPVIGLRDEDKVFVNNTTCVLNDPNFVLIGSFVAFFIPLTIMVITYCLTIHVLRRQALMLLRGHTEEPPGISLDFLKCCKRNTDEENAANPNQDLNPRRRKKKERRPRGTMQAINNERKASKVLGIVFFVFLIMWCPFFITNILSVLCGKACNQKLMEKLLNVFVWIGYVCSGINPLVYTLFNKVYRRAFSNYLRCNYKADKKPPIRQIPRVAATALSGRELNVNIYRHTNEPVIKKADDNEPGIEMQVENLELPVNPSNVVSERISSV
# Procedure: as §1
# [6] = molecular target: T5, serotonin 5-HT1A receptor (Homo sapiens, UniProt P08908); experiment: Functional assay, effect on receptor function; format: biochemical
# T5 sequence (P08908 1-422): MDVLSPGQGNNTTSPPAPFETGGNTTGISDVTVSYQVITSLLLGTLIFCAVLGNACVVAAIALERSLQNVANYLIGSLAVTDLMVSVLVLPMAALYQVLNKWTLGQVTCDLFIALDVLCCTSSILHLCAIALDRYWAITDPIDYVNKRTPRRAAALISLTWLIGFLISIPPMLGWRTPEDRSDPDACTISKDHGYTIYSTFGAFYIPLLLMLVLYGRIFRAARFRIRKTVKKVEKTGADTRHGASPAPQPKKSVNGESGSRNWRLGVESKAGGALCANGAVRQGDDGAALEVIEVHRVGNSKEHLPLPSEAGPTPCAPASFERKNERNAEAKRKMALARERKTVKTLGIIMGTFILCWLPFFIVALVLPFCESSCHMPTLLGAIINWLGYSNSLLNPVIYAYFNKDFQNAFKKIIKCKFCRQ
# Procedure: as §1
# [7] = molecular target: Norepinephrine α1 receptor; experiment: In vitro receptor binding, norepinephrine α1 (rat)
# [8] = Lurasidone adjunctive to lithium or divalproex for bipolar I depression, 6-week study, safety and tolerability; format: in vivo, human; conditions: adjunctive to Li/VPA
# Procedure: Therapeutic blood levels of Li or VPA had to be maintained for ≧28 days prior to randomization.
# The total duration of treatment was 6 weeks.
# Patients were required to continue treatment with lithium or divalproex during the screening period and throughout the study. Dose adjustments of lithium or divalproex were permitted during the trial to ensure that trough serum levels remained within the protocol-specified range (0.6 mEq/L to 1.2 mEq/L for lithium or […] to 125 μg/mL for divalproex).
# This study also evaluated the safety and tolerability of using lurasidone in combination with lithium or divalproex. Patients were evaluated for: (1) Adverse effects, discontinuation due to adverse effects (AEs), and serious adverse effects (SAEs), (2) Movement disorders as assessed by Abnormal Involuntary Movement Scale (AIMS), Barnes Akathisia Rating Scale (BARS), and the Simpson-Angus Scale (SAS), and (3) Weight, laboratory measures, vital signs, and electrocardiograms (ECGs).
# [9] = molecular target: T5, serotonin 5-HT1A receptor; conditions: background statement; cited from earlier work
# [10] = molecular target: histamine H1 receptor (Homo sapiens, UniProt P35367); conditions: background statement; cited from earlier work
# [11] = molecular target: Histamine H1 receptor (Cavia porcellus, UniProt P31389); experiment: In vitro receptor binding, histamine H1 (guinea pig)
# Histamine H1 receptor, sequence (P31389 whole entry): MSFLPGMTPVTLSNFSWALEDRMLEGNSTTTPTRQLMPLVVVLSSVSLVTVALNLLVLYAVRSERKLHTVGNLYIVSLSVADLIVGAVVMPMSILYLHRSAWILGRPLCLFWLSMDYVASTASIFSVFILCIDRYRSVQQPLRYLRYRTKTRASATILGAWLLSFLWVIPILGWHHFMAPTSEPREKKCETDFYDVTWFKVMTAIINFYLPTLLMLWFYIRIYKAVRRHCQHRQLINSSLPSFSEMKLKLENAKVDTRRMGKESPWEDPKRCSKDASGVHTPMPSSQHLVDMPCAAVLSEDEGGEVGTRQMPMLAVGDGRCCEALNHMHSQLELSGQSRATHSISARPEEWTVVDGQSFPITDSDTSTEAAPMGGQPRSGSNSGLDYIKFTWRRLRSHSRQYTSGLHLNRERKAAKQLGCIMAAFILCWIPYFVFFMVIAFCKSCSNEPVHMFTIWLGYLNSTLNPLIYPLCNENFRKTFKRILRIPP
# T1 sequence (P18901 whole entry): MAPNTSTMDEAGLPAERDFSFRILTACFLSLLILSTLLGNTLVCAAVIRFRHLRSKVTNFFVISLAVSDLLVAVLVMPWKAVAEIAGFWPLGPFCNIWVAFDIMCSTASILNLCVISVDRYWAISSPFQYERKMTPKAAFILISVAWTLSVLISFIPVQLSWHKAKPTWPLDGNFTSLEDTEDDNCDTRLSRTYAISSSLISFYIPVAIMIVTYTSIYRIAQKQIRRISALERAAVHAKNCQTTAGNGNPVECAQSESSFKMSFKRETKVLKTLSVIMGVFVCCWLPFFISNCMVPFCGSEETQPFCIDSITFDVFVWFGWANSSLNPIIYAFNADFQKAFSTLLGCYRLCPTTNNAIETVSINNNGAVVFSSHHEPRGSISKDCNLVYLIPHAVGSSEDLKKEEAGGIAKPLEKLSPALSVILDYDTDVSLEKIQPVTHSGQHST
# dopamine D2 receptor, sequence (P14416 whole entry): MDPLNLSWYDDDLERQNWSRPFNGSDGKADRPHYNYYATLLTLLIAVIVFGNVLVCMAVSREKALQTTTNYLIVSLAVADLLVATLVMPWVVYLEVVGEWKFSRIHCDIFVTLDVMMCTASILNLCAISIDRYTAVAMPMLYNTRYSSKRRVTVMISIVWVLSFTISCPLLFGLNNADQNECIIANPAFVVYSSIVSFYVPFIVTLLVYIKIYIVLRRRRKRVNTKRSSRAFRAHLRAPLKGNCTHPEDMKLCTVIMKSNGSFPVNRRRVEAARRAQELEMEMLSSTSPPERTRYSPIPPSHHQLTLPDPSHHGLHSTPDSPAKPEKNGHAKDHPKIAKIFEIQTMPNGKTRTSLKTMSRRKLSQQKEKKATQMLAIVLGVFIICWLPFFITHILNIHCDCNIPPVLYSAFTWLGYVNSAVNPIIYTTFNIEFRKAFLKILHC
# T2 sequence (P35462 whole entry): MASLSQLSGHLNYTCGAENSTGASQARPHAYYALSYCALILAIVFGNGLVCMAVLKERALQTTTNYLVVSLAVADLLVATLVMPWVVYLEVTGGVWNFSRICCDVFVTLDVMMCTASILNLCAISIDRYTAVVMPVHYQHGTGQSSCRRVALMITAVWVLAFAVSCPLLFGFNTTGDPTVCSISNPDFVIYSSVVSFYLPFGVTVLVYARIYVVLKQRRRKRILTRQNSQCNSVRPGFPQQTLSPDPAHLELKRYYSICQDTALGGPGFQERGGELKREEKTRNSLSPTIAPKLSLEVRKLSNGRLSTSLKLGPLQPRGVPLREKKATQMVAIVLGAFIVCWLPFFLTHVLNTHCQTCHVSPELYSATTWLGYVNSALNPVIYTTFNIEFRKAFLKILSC
# histamine H1 receptor, sequence (P35367 whole entry): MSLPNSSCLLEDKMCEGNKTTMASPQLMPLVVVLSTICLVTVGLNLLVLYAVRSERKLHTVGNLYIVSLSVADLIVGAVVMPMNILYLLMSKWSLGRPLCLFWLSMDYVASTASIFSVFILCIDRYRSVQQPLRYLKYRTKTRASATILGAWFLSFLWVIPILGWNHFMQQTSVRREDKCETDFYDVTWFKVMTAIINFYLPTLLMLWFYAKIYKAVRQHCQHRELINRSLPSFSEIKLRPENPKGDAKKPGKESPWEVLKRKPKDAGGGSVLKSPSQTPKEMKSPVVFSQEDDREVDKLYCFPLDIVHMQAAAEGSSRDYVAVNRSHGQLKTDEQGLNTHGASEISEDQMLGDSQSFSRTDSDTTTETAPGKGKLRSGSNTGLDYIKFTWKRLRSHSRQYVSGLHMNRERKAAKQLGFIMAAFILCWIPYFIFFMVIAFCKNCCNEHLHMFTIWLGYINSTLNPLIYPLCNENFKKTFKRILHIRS
smiles,measurement,setting,value
O=C1[C@@H]2[C@H]3CC[C@H](C3)[C@@H]2C(=O)N1C[C@@H]1CCCC[C@H]1CN1CCN(c2nsc3ccccc23)CC1 [Lurasidone],Ki,[1],262 nM
same,Ki,[2],15.7 nM
same,reported affinity for noradrenaline α2C receptor,[3],high affinity
same,reported affinity for dopamine D2 receptor,[4],high affinity
same,Ki,"[5]; porcine, read-out: Binding Affinities (Ki; nM) Serotonin 5-HT2c",415 nM
same,binding affinity for serotonin 5-HT2C receptor (in words),[5]; summary of Table 2,low or negligible binding affinity
same,effect on 5-HT1A receptor function,[6],partial agonist
same,Ki,"[7]; rat, read-out: Binding Affinities (Ki; nM) Norepinephrine α1",47.9 nM
same,binding affinity for α1 adrenoreceptor (in words),[7]; summary of Table 2,low or negligible binding affinity
same,"changes in weight, lipids, and measures of glucemic control",[8],Minimal changes
same,discontinuation rates due to adverse events,[8],6%
same,most frequently reported adverse events,[8],"nausea, headache, somnolence, and tremor"
same,reported affinity for 5-HT1A receptor,[9],high affinity; also recorded: moderate affinity
same,reported affinity for histamine H1 receptor,[10],minimal to no affinity
same,Ki,"[11]; guinea pig, read-out: Binding Affinities (Ki; nM) Histamine H1",> 1000 nM
same,binding affinity for histamine H1 receptor (in words),[11]; summary of Table 2,low or negligible binding affinity
